{
  "source": "patent US7317037B2",
  "about": "“Progesterone receptor modulators comprising pyrrole-oxindole derivatives and uses thereof” (Wyeth, priority 2004, dated 2008)",
  "key": {"[1]": {"target": "T1, progesterone receptor (PR) (Homo sapiens, UniProt P06401)", "T1 construct": "Effects of Progestins and Antiprogestins on Alkaline Phosphatase Activity in T47D Cells; endogenous in cells; host or cells: T47D cells", "T1 sequence (P06401 1-933)": "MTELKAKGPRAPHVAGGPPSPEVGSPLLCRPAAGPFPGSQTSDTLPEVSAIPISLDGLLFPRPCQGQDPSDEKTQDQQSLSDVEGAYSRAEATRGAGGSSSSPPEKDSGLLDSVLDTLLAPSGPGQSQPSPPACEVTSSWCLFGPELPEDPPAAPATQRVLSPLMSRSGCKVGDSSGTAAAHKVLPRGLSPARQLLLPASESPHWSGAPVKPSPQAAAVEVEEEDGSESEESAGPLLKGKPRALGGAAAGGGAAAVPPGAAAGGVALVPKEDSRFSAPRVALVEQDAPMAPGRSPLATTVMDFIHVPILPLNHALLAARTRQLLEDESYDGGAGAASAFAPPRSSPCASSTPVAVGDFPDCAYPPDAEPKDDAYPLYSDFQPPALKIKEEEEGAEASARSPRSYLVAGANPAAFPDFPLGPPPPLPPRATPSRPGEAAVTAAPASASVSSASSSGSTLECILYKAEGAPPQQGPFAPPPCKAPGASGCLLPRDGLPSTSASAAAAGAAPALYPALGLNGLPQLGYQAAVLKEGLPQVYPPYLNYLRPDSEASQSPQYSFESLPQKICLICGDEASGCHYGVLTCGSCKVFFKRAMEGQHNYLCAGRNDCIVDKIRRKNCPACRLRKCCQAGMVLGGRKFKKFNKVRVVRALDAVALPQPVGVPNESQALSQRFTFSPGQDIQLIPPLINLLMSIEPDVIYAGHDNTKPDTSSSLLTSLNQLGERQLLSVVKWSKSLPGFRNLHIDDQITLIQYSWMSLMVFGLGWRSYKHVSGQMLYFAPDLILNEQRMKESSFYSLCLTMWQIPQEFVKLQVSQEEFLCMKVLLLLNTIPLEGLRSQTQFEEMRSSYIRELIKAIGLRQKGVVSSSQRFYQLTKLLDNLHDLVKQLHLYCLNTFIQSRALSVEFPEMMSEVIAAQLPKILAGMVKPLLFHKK", "test": "T47D cell alkaline phosphatase assay (antagonist mode)", "assay_type": "cell-based", "experimental": "A. Effects of Progestins and Antiprogestins on Alkaline Phosphatase Activity in T47D Cells (T47D Alkaline Phosphatase Assay)\nCulture medium: DMEM:F12 (1:1) (GIBCO, BRL) supplemented with 5% (v/v) charcoal stripped fetal bovine serum (not heat-inactivated), 100 U/mL penicillin, 100 μg/mL streptomycin, and 2 mM GlutaMax (GIBCO, BRL).\nAlkaline phosphatase assay buffer: I. 0.1M Tris-HCl, pH 9.8, containing 0.2% Triton X-100, 0.1M Tris-HCl, pH 9.8, containing 4 mM p-nitrophenyl phosphate (Sigma).\n2. Cell Culture and Treatment:\nFrozen T47D cells are thawed in a 37° C. water bath and diluted to 280,000 cells/mL in culture medium. To each well in a 96-well plate (Falcon, Becton Dickinson Labware), 180 μl of diluted cell suspension is added. Twenty μl of reference or test compounds diluted in the culture medium is then added to each well. When testing for progestin antagonist activity, reference antiprogestins or test compounds are added in the presence of 1 nM progesterone. The cells are incubated at 37° C. in a 5% CO2 humidified atmosphere for 24 hours. For high throughput screening, one concentration of each compound will be tested at 0.3 μg/mL. Based on an average molecular weight of 300 g/mol for the compounds in the library, the concentration is approximately 1 μM. Subsequently, active compounds will be tested in dose response assays to determine EC50 and IC50.\n3. Alkaline Phosphatase Enzyme Assay:\nAt the end of treatment, the medium is removed from the plate. Fifty μl of assay buffer I is added to each well. The plates are shaken in a titer plate shaker for 15 min. Then 150 μl of assay buffer II is added to each well. Optical density measurements are taken at 5 min intervals for 30 min at a test wavelength of 405 nm.\n4. Analysis of Dose-Response Data.\nFor reference and test compounds, a dose response curve is generated for dose vs. the rate of enzyme reaction (slope). Square root-transformed data are used for analysis of variance and nonlinear dose response curve fitting for both agonist and antagonist modes. Huber weighting is used to down-weight the effects of outliers. EC50 or IC50 values are calculated from the retransformed values. JMP software (SAS Institute, Inc.) is used for both one-way analysis of variance and non-4 linear dose response analysis in both single dose and dose response studies.\nProgesterone and trimegestone are reference progestins and RU486 is the reference antiprogestin. All reference compounds are run in full dose response curves and the EC50 and IC50 values are calculated."}, "[2]": {"test": "Cynomolgus monkey intravenous pharmacokinetics", "conditions": "in vivo, cynomolgus monkeys, 0.25 mg/kg i.v.", "from_the_text": "Therefore from the preceding data it is clear that the R6=fluorine group present in 5-(7-fluoro-3,3-dimethyl-2-oxo-2,3-dihydro-1H-indol-5-yl)-1-methyl-1H-pyrrole-2-carbonitrile dramatically improves the pharmacokinetic performance of the molecule. This improved pharmacokinetic performance translates in the cynomolgus menses induction assay to a dramatic improvement in activity."}},
  "note": "Like-named read-outs stand apart in the source and are kept apart here.",
  "data": [
    {"compound": "Cn1c(C#N)ccc1-c1cc(F)c2c(c1)C(C)(C)C(=O)N2", "note": "[5-(7-fluoro-3,3-dimethyl-2-oxo-2,3-dihydro-1H-indol-5-yl)-1-methyl-1H-pyrrole-2-carbonitrile]", "values": [
      {"measurement": "IC50", "setting": "[1]; PR antagonist, comparative example text, read-out: IC50 in the T47D alkaline phosphatase assay", "result": 3.4, "unit": "nM"},
      {"measurement": "IC50", "setting": "[1]; T47D cells, antagonist mode in the presence of 1 nM progesterone, 24 hours, read-out: IC50 (nM), T47D Cell Alkaline Phosphatase Assay", "result": 5.4, "unit": "nM"},
      {"measurement": "AUC(0-inf)", "setting": "[2]; read-out: exposure (AUC0-∞)", "result": 578, "unit": "ng·h/mL"},
      {"measurement": "half-life", "setting": "[2]; read-out: mean half life (t1/2) (converted)", "result": 8.8, "unit": "h"}
    ]}
  ]
}
